Results published in the NIST ThermoML archive (doi:10.1016/j.jct.2016.04.009).

Experiments:
[1] = molar heat capacity at constant pressure; details: 101.33 kPa
[2] = DSC
[3] = Molar enthalpy of transition or fusion; details: DSC

C[n+]1ccn(Cc2ccccc2)c1.O=S(=O)([N-]S(=O)(=O)C(F)(F)F)C(F)(F)F
[1], Liquid
Details | molar heat capacity at constant pressure [J/K/mol]
258.09 K, Small sample (50 mg) DSC | 588.22
263.2 K, Small sample (50 mg) DSC | 589.8
268.3 K, Small sample (50 mg) DSC | 592.39
273.38 K, Small sample (50 mg) DSC | 596.83
278.51 K, Small sample (50 mg) DSC | 597.13
283.61 K, Small sample (50 mg) DSC | 599.43
288.72 K, Small sample (50 mg) DSC | 601.59
293.82 K, Small sample (50 mg) DSC | 603.91
298.15 K, Drop calorimetry | 598.96
298.93 K, Small sample (50 mg) DSC | 606.63
304.03 K, Small sample (50 mg) DSC | 609.41
309.14 K, Small sample (50 mg) DSC | 611.94
314.24 K, Small sample (50 mg) DSC | 615.52
319.35 K, Small sample (50 mg) DSC | 618.97
324.45 K, Small sample (50 mg) DSC | 621.42
329.41 K, Small sample (50 mg) DSC | 624.07
334.67 K, Small sample (50 mg) DSC | 626.99
339.78 K, Small sample (50 mg) DSC | 630.16
344.88 K, Small sample (50 mg) DSC | 633.62
349.99 K, Small sample (50 mg) DSC | 636.94
355.08 K, Small sample (50 mg) DSC | 640.33

Details | Glass transition temperature [°C]
[2] | -56.4

C[n+]1ccn(Cc2ccccc2)c1.[Cl-] [1-benzyl-3-methyl-1H-imidazolium chloride]
molar heat capacity at constant pressure [J/K/mol], [1]
Details | Crystal | Metastable liquid
261.06 K, Small sample (50 mg) DSC | 238.97 | –
265 K, Small sample (50 mg) DSC | 243.67 | –
270 K, Small sample (50 mg) DSC | 252.99 | –
275 K, Small sample (50 mg) DSC | 261.15 | –
277.11 K, Small sample (50 mg) DSC | – | 329.64
280 K, Small sample (50 mg) DSC | 269.17 | 330.72
285 K, Small sample (50 mg) DSC | 278.83 | 332.88
289.14 K, Small sample (50 mg) DSC | 288.47 | –
290 K, Small sample (50 mg) DSC | – | 335.29
295 K, Small sample (50 mg) DSC | – | 338
298.15 K, Drop calorimetry | – | 338.43
300 K, Small sample (50 mg) DSC | – | 340.37
305 K, Small sample (50 mg) DSC | – | 342.49
310 K, Small sample (50 mg) DSC | – | 344.71
315 K, Small sample (50 mg) DSC | – | 346.85
320 K, Small sample (50 mg) DSC | – | 348.98
325 K, Small sample (50 mg) DSC | – | 351.32
330 K, Small sample (50 mg) DSC | – | 353.53
335 K, Small sample (50 mg) DSC | – | 355.73
340 K, Small sample (50 mg) DSC | – | 358
345 K, Small sample (50 mg) DSC | – | 360.85
350 K, Small sample (50 mg) DSC | – | 363.87
355 K, Small sample (50 mg) DSC | – | 367.01

Details | Glass transition temperature [°C]
[2] | -8.4

Cn1cc[n+](Cc2ccccc2)c1.F[P-](F)(F)(F)(F)F [1-benzyl-3-methylimidazolium hexafluorophosphate]
[1], Crystal
Details | molar heat capacity at constant pressure [J/K/mol]
258.09 K, Small sample (50 mg) DSC | 321.38
263.2 K, Small sample (50 mg) DSC | 325.69
268.3 K, Small sample (50 mg) DSC | 330.39
273.41 K, Small sample (50 mg) DSC | 335.64
278.51 K, Small sample (50 mg) DSC | 339.82
283.62 K, Small sample (50 mg) DSC | 344.42
288.72 K, Small sample (50 mg) DSC | 348.47
293.83 K, Small sample (50 mg) DSC | 352.84
298.15 K, Drop calorimetry | 360.42
298.93 K, Small sample (50 mg) DSC | 357.16
304.04 K, Small sample (50 mg) DSC | 361.74
309.14 K, Small sample (50 mg) DSC | 366.16
314.25 K, Small sample (50 mg) DSC | 371.17
319.35 K, Small sample (50 mg) DSC | 376.2
324.46 K, Small sample (50 mg) DSC | 380.3
329.56 K, Small sample (50 mg) DSC | 384.8
334.67 K, Small sample (50 mg) DSC | 389.73
339.77 K, Small sample (50 mg) DSC | 394.64
344.88 K, Small sample (50 mg) DSC | 399.86
349.98 K, Small sample (50 mg) DSC | 404.92
355.09 K, Small sample (50 mg) DSC | 410.63

Crystal
Details | Molar enthalpy of transition or fusion [kcal/mol] | Triple point temperature [K]
[2] | – | 399.7
[3] | 5.95 | –

Details | Glass transition temperature [°C]
[2] | -28.3

C[n+]1ccn(Cc2ccccc2)c1.O=S(=O)([O-])C(F)(F)C(F)F
[1]
Details | molar heat capacity at constant pressure [J/K/mol]
278.51 K, Crystal, Small sample (50 mg) DSC | 393.57
283.62 K, Crystal, Small sample (50 mg) DSC | 402.07
288.72 K, Crystal, Small sample (50 mg) DSC | 411.24
293.83 K, Crystal, Small sample (50 mg) DSC | 423.44
298.15 K, Crystal, Drop calorimetry | 434.75
298.15 K, Metastable liquid, Drop calorimetry | 509.51
334.67 K, Liquid, Small sample (50 mg) DSC | 527.08
339.77 K, Liquid, Small sample (50 mg) DSC | 530.26
344.88 K, Liquid, Small sample (50 mg) DSC | 533.48
349.98 K, Liquid, Small sample (50 mg) DSC | 537.12
355.09 K, Liquid, Small sample (50 mg) DSC | 540.53

Crystal
Details | Molar enthalpy of transition or fusion [kcal/mol] | Triple point temperature [K]
[2] | – | 315.4
[3] | 5.64 | –

Details | Glass transition temperature [°C]
[2] | -44.0

C[n+]1ccn(Cc2ccccc2)c1.F[B-](F)(F)F [1-benzyl-3-methylimidazolium tetrafluoroborate]
[1]
Details | molar heat capacity at constant pressure [J/K/mol]
261.7 K, Crystal, Small sample (50 mg) DSC | 292.62
265 K, Crystal, Small sample (50 mg) DSC | 295.4
270 K, Crystal, Small sample (50 mg) DSC | 299.6
275 K, Crystal, Small sample (50 mg) DSC | 304.74
275.65 K, Metastable crystal, Small sample (50 mg) DSC | 283.68
280 K, Crystal, Small sample (50 mg) DSC | 309.29
280 K, Metastable crystal, Small sample (50 mg) DSC | 287.35
285 K, Crystal, Small sample (50 mg) DSC | 313.98
285 K, Metastable crystal, Small sample (50 mg) DSC | 292.48
290 K, Crystal, Small sample (50 mg) DSC | 319.04
290 K, Metastable crystal, Small sample (50 mg) DSC | 298.09
295 K, Crystal, Small sample (50 mg) DSC | 324.16
295 K, Metastable crystal, Small sample (50 mg) DSC | 303.57
298.15 K, Crystal, Drop calorimetry | 325.85
298.15 K, Metastable crystal, Drop calorimetry | 304.61
300 K, Crystal, Small sample (50 mg) DSC | 329.01
300 K, Metastable crystal, Small sample (50 mg) DSC | 307.82
305 K, Crystal, Small sample (50 mg) DSC | 333.82
305 K, Metastable crystal, Small sample (50 mg) DSC | 312.26
310 K, Crystal, Small sample (50 mg) DSC | 338.5
310 K, Metastable crystal, Small sample (50 mg) DSC | 316.56
315 K, Crystal, Small sample (50 mg) DSC | 343.23
315 K, Metastable crystal, Small sample (50 mg) DSC | 320.92
318.98 K, Metastable crystal, Small sample (50 mg) DSC | 324.78
320 K, Crystal, Small sample (50 mg) DSC | 348.35
325 K, Crystal, Small sample (50 mg) DSC | 353.67
328.42 K, Crystal, Small sample (50 mg) DSC | 356.83
345.5 K, Small sample (50 mg) DSC, Liquid | 417.35
350 K, Small sample (50 mg) DSC, Liquid | 420.2
355 K, Small sample (50 mg) DSC, Liquid | 423.44
357.55 K, Small sample (50 mg) DSC, Liquid | 424.91

Details | Molar enthalpy of transition or fusion, [3] [kcal/mol] | Triple point temperature, [2] [K]
Crystal | 4.57 | 346.2
Metastable crystal | 3.97 | 336.5

Details | Glass transition temperature [°C]
[2] | -37.8
